Where two headings read alike, the source gives them in different places.
Key:
[1] = test system: Human Foreskin Fibroblast (HFF); assay: Cytotoxicity assay, WST-1 cell proliferation reagent on HFF; format: cell-based
Procedure: Toxicity assays used WST-1 cell proliferation reagent (Roche) as in Fomovska et al. ([2012a]). HFF were grown on a flat, clear-bottomed, black 96-well plate. Confluent HFF were treated with inhibitory compounds at concentrations of 10 and 50 μM. Compounds were diluted in IMDM-C, and 20 μL were added to each designated well, with triplicates for each condition. A gradient with 2-folddecreasing concentrations of DMSO from 10 to 0% in colorless, translucent IMDM-C was used as a control. The plate was incubated for 72 h at 37°C. Ten microlitre WST-1 reagent (Roche) were added to each well. Cells were incubated for 30–60 min. Absorbance was read using a fluorimeter at 420 nm. A higher degree of color change (and absorbance) indicated mitochondrial activity and cell viability.

[2] = test system: T. gondii RH-YFP tachyzoites; assay: In vitro challenge assay, RH strain YFP tachyzoites in HFF; format: cell-based; details: Toxoplasma gondii; RH-YFP tachyzoites in HFF; Figure 1A; read-out: Tachy IC50
Procedure: RH strain YFP Tachyzoites. Protocol was adapted from Fomovska et al. ([2012a],[b]) for HFF. HFF were cultured on a flat, clear-bottomed, black 96-well plate to 90–100% confluence. IMDM (1x, [+] glutamine, [+] 25 mM HEPES, [+] Phenol red, 10% FBS [Gibco, Denmark]) was removed and replaced with IMDM-C(1x, [+] glutamine, [+] 25 mM HEPES, [–] Phenol red, 10% FBS)[Gibco, Denmark]). RH-YFP, lysed from host cells by passing twice through a 27-gauge needle, were counted, then diluted to 32,000/mL in IMDM-C. HFF were infected with 3200 RH-YFP, then returned to 37°C, CO2 (5%) incubator for 1–2 h for infection. Various concentrations of the compounds in 20 μL IMDM-C were added to each well. There were triplicates for each condition. Controls were pyrimethamine/sulfadiazine (standard treatment), 0.1% DMSO only, HFF only, and untreated cultures of HFF infected with 2-fold dilutions of YFP expressing parasites (called “YFP gradient” to establish amount of color from known numbers of YFP expressing parasites). Cells were incubated at 37°C for 72 h. Plates were read using a fluorimeter (Synergy H4 Hybrid Reader, BioTek) to ascertain amount of relative fluorescence units (RFU) YFP, to measure parasite burden after treatment. Data were collected using Gen5 software with IC50 calculated by graphical analysis in Excel.
An initial screening assay of 10 μM, 1 μM, 100 nM, and 10 nM of the compounds was performed. Compounds were not considered effective or pursued for further analysis if there was no inhibition of tachyzoites at 1 μM. If compounds were effective at 1 μM, another experiment was performed to assess effect at 1 μM, 500, 250, 125, 62.5, and 31.25 nM.

[3] = test system: P. falciparum strains D6, TM91-C235, W2, C2B; assay: Malaria SYBR Green I-Based Fluorescence (MSF) assay; format: cell-based; details: Plasmodium falciparum
Procedure: Malaria potency testing in vitro was performed using 4 different P. falciparum strains, D6, TM91-C235, W2, and C2B. The D6 strain is a drug sensitive strain from Sierra Leone, the TM91-C235 strain is a multi-drug resistant strain from Thailand, the W2 strain is a chloroquine resistant strain from Thailand, and the C2B strain is a multi-drug resistant strain with resistance against atovaquone. These assays were performed as described below.
Compound activity against P. falciparum, was tested using the Malaria SYBR Green I–Based Fluorescence (MSF) Assay. The complete method for performing this microtiter assay is described in previous work published by Plouffe et al. ([2008]) and Johnson et al. ([2007]). In brief, this assay uses the binding of the fluorescent dye SYBR Green I to malaria DNA to measure parasite growth in the presence of 2-fold diluted experimental or control. The relative fluorescence of the intercalated SYBR Green I proportional to parasite growth, and inhibitory compounds will result in lower observed fluorescence compared to untreated parasites.

[4] = test system: T. gondii mitochondrial membrane potential; assay: T. gondii mitochondrial membrane potential, safranine method; format: cell-based, Toxoplasma gondii; details: doses as high as 4 μM
Procedure: The mitochondrial membrane potential was measured by the safranine method according to Vercesi et al. ([1998]). Freshly egressed T. gondii tachyzoites were filtered and washed twice with intracellular buffer (125 mM sucrose, 65 mM KCl, 10 mM HEPES-KOH buffer, pH 7.2, 1 mM MgCl2, and 2.5 mM potassium phosphate). After washing, the parasites were resuspended in the same buffer at 10^9/mL. An aliquot of 50 μL of this suspension was added to a cuvette containing Safranin O, 2.5 μM and Succinate 1 mM in final volume of 2 mL of the intracellular buffer. The fluorescence was measured with a Hitachi 7000 spectrofluorometer with settings Ex. 495/Em. 586. Once the baseline fluorescence was stable, 30 μM digitonin was added to permeabilize the parasites. Eighty five seconds after permeabilization, the THQ derivatives, dissolved in DMSO, were added. Five micromolars of FCCP (Carbonyl cyanide-4-(trifluoromethoxy) phenylhydrazone) was used as an uncoupler reference for calculations and its effect was considered 100%. We used similar conditions for measuring the mitochondrial membrane potential of mammalian cells with the following changes: the mammalian cells were resuspended at 10^8/mL. We also used 50 μL of this suspension for each experiment in a total volume of 2 mL. The substrate used for mammalian cells was 5 mM glutamate and 5 mM malate. A higher concentration of digitonin (50 μM) was used to permeabilize the mammalian cells. The compounds were added at ~400 s after permeabilization. Each experiment was repeated at least three times in duplicates. Statistical analysis, unpaired student t-test, was performed using GraphPad Prism 8.0 (GraphPad Software, Inc., San Diego, CA).
Mitochondrial membrane potential measurements were performed with permeabilized T. gondii tachyzoites in suspension using safranin O, which loads into polarized membranes [see section Materials and Methods in the Supplemental Materials (Vercesi et al., [1998])]. T. gondii tachyzoites were permeabilized with digitonin to allow the mitochondrial substrate succinate to cross the membrane and energize the mitochondrion. The fluorescence of safranin O, which loads into energized mitochondria was used to measure the membrane potential. The energized state of the mitochondrion is observed by a decrease in fluorescence (Figures 3A,C,E). Trifluoromethoxy carbonylcyanide phenylhydrazone (FCCP) was used to depolarize the membrane, which is observed as an increase in fluorescence (Figures 3A,B). JAG21 depolarized the membrane potential even at concentrations as low as 2 nM (Figures 3C,D). JAG21 and Atovaquone had similar effects on the mitochondrial membrane potential (Figure 3D). […]

T. gondii RPS13Δ = assay: RPS13Δ infection of interferon γ receptor knockout mice; format: in vivo, Toxoplasma gondii; details: mice to start 5 (Tafenoquine), 5 (JAG21)
Procedure: In pilot studies, herein, interferon γ receptor knockout mice that were not treated were observed following infection. At 7 and at 14 days following infection, spleen, and liver were removed and immune peroxidase stained. At 14 days a group of mice were treated with anhydrotetracycline and when a subset of these mice died, their spleen and liver were removed and immune peroxidase stained.
As in the pilot studies, this RPS13 Δ parasite also was used to infect interferon γ receptor knockout mice in a treatment study. In this separate study, groups of mice were infected with RPS13 Δ. They were treated with tafenoquine on day−1, or JAG21 for 14 days 2 h after infection, or the two together with tafenoquine on day−1 and JAG21 for the first 14 days, or with diluent only for 14 days, as described above. For the initial 14 days, no tetracycline was administered. After that time tetracycline was administered. Mice were observed each day. At the time they appeared to have substantial illness or at the termination of the experiment they were euthanized, tissues fixed in formalin and stained with hematoxylin and eosin or immunoperoxidase stained and parasite burden was assessed.

[5] = C2B, multi-drug resistant strain with resistance against atovaquone, read-out: SYBR Green C2B IC50
[6] = D6, drug sensitive strain, read-out: SYBR Green D6 IC50
[7] = TM91-C235, multi-drug resistant strain, read-out: SYBR Green C235 IC50
[8] = W2, chloroquine resistant strain, read-out: SYBR Green W2 IC50

Row | Structure (SMILES) | Toxicity [1] [µM] | IC50 [2] [µM] | IC50 [3, 5] [µM] | IC50 [3, 6] [µM] | IC50 [3, 7] [µM] | IC50 [3, 8] [µM] | effect on mitochondrial membrane potential [4] | number of mice left at 42 (T. gondii RPS13Δ; Experiment 1, 6 (Tafenoquine+JAG21)) | number of mice left at 37 (T. gondii RPS13Δ; Experiment 2, 9 (Tafenoquine+JAG21))
1 | COc1ccc(Oc2ccc(-c3c(C)[nH]c4c(c3=O)CCCC4)cc2)cc1OC [AS033] | 5 |  |  |  |  |  |  |  | 
2 | Cc1[nH]c2c(c(=O)c1-c1ccc(Oc3ccc(C(=O)O)cc3)cc1)CCCC2 [JAG046] |  | > 10 | > 20 | 6.72 | > 20 | > 20 | almost no effect |  | 
3 | Cc1[nH]c2c(c(=O)c1-c1ccc(Oc3cccc(C(=O)O)c3)cc1)CCCC2 [JAG047] |  | > 10 | 7.78 | 3.75 | 12.6 | 9.07 | almost no effect |  | 
4 | COc1cc(C)c2c(Oc3cccc(C(F)(F)F)c3)c(OC)cc(NC(C)CCCN)c2n1 (stereo not drawn) [TAF, tafenoquine, reference compound] |  |  |  |  |  |  |  | 1 | 2

Source: publication PMC7311950, “Potent Tetrahydroquinolone Eliminates Apicomplexan Parasites” (Frontiers in Cellular and Infection Microbiology, 2020)
